According to patent publication US11312675B2, “Crystalline polymorphs of 1,6-dibromo-1,6-dideoxy-dulcitol” (Targent, LLC, priority 2015, dated 2022):

What was measured:
[1] = Kellner et al., Nature (1967); cited from earlier work
[2] = reported in the literature; cited from earlier work
[3] = Thermogravimetric analysis (TGA); format: physicochemical; settings: heating from 25° C. to 450° C. at 10K/min
Protocol: The analysis was carried out using the Mettler Toledo Stare System with the following parameters. The sample was weighed in an aluminum pan hermetically sealed with an aluminum pierced cover. The analysis was performed heating the sample from 25° C. to 450° C. at 10K/min.

[4] = Stability tests (storage, analysed by XRPD); format: physicochemical
Protocol: The sample was stored in the following conditions (a) 25° C. and 60% RH for 7 days and (b) 60° C. and 75% RH for 3 days. The samples were analyzed after the test by XRPD.

Q: Which antitumor effect [1] does the source give for `O[C@H]([C@H](O)[C@@H](O)CBr)[C@H](O)CBr` [DBD, 1,6-dibromo-1,6-dideoxy-dulcitol] here?
A: selective a vigorous antitumor effect

Q: What about the solubility [2] of the same compound?
A: poorly soluble

Q: With `O[C@H]([C@H](O)[C@@H](O)CBr)[C@H](O)CBr` [crystalline DBD polymorph, 1,6-dibromo-1,6-dideoxy-dulcitol] as the compound, how does the “degradation of the sample (TGA profile)” value [3] read?
A: approximately 170 °C

Q: And the “stability of the crystalline form (XRPD after storage)” value ([4]; 25° C. and 60% RH for 7 days)?
A: stable

Q: What about the “stability of the crystalline form (XRPD after storage)” value ([4]; 60° C. and 75% RH for 3 days) of the same compound?
A: stable
